Tested on: AGS cells (KRAS^G12D)
Test: Detection of cell proliferation in vitro by MTT/MTS method (cell activity experiment)
Format: cell-based
Details: Homo sapiens, AGS, 72 h, AGS cells; MTT/MTS; 3 days of drug treatment; read-out: AGS IC50
Procedure: The above cells were cultured in a complete medium containing 10% fetal bovine serum, 100 IU/mL penicillin and 100 jag/mL streptomycin, in the aseptic incubator with 95% relative humidity and 5% CO2 concentration.
2. Reagents: F12K, D-PBS, FBS, Penicillin Streptomycin, Tryple, MTT (5 mg/mL)
Appropriate amount of compound powder was weighed in a 1.5 mL centrifuge tube, then the corresponding volume of dimethyl sulfoxide (DMSO) was added to form a 20 mM reserve solution. The solution was packed separately and stored in a refrigerator at −20° C. away from light.
The cells were inoculated in a cell culture bottle, added an appropriate amount of complete medium, and cultured in a sterile incubator. When the degree of cell confluence reached more than 80%, subculture was carried out.
The adherent cells in logarithmic growth phase were digested by trypsin or the suspension cells were collected by centrifugation and counted. 90 μL cell suspension was inoculated into 96-well plate according to the cell inoculation density of 1000 cells per well, and 10 μL of 10-fold final concentration compound diluted by culture medium was added 24 hours later. Compared with the hole with the same volume of 5% DMSO as control, the final concentration of DMSO was 0.5%. After 3 days of drug treatment, the cell viability was detected by MTT. The specific methods are as follows: 10 μL MTT per well was added into the incubator for 4 hours, the supernatant was discarded and 150 μL DMSO was added to dissolve the crystal methylazan, and the absorbance of 490 nm was detected by enzyme labeling instrument, or 10 μL MITS per well was added to the incubator for 4 hours, and […] absorbance was detected directly by enzyme labeling instrument. GraphPad Prism 6 software makes dose-effect curve and calculates IC50.

| Compound | IC50 [nM] |
| --- | --- |
| C#Cc1c(F)ccc2cc(O)cc(-c3ccc4c(C5C[C@H]6CC[C@@H](C5)N6)nc(OC[C@@]56CCCN5C[C@H](F)C6)nc4c3F)c12 (stereo partly drawn) [Example 137, 4-(4-((1R,5S)-8-azabicyclo[3.2.1]octan-3-yl)-8-fluoro-2-(((2R,7aS)-2-fluorotetrahydro-1H-pyrrolizin-7a(5H)-yl)methoxy)quinazolin-7-yl)-5-ethynyl-6-fluoronaphthalen-2-ol] | > 2500 |
| CSc1nccc2cc(O)cc(-c3ncc4c(N5C[C@H]6CC[C@@H](C5)N6)nc(OC[C@@]56CCCN5C[C@H](F)C6)nc4c3F)c12 [Example 341, 8-(4-((1R,5S)-3,8-diazabicyclo[3.2.1]octan-3-yl)-8-fluoro-2-(((2R,7aS)-2-fluorotetrahydro-1H-pyrrolizin-7a(5H)-yl)methoxy)pyrido[4,3-d]pyrimidin-7-yl)-1-(methylthio)isoquinolin-6-ol] | 25 |
| C#Cc1cc2c(N3C[C@H]4CC[C@@H](C3)N4)nc(OC[C@@]34CCCN3C[C@H](F)C4)nc2c(F)c1-c1cc(O)cc2ccc(F)c(C#C)c12 [Example 373, 4-(4-((1R,5S)-3,8-diazabicyclo[3.2.1]octan-3-yl)-6-ethynyl-8-fluoro-2-(((2R,7aS)-2-fluorotetrahydro-1H-pyrrolizin-7a(5H)-yl)methoxy)quinazolin-7-yl)-5-ethynyl-6-fluoronaphthalen-2-ol] | 30 |
| Oc1cc(-c2c3c(c4c(N5C[C@H]6CC[C@@H](C5)N6)nc(OC[C@@]56CCCN5C[C@H](F)C6)nc4c2F)OCO3)c2ccccc2c1 [Example 389, 4-(9-((1R,5S)-3,8-diazabicyclo[3.2.1]octan-3-yl)-5-fluoro-7-(((2R,7aS)-2-fluorotetrahydro-1H-pyrrolizin-7a(5H)-yl)methoxy)-[1,3]dioxolo[4,5-f]quinazolin-4-yl)naphthalen-2-ol] | 180 |
| C#Cc1c(F)ccc2cc(O)cc(-c3cnc4c(N5C[C@H]6CC[C@@H](C5)N6)nc(OC[C@@]56CCCN5C[C@H](F)C6)nc4c3)c12 [Example 200, 4-(4-((1R,5S)-3,8-diazabicyclo[3.2.1]octan-3-yl)-2-(((2R,7aS)-2-fluorotetrahydro-1H-pyrrolizin-7a(5H)-yl)methoxy)pyrido[3,2-d]pyrimidin-7-yl)-5-ethynyl-6-fluoronaphthalen-2-ol] | > 2500 |
| C#Cc1c(F)ccc2cc(O)cc(-c3ncc4c(N5CC6CCC(C5)C6N)nc(OC[C@@]56CCCN5C[C@H](F)C6)nc4c3F)c12 (stereo partly drawn) [Example 63, 4-(4-((1R,5S,8R)-8-amino-3-azabicyclo [3.2.1]octan-3-yl)-8-fluoro-2-(((2R,7aS)-2-fluorotetrahydro-1H-pyrrolizin-7a(5H)-yl)methoxy)pyrido[4,3-d]pyrimidin-7-yl)-5-ethynyl-6-fluoronaphthalen-2-ol] | 1580 |
| CCC1CCc2cc(O)cc(-c3ccc4c(N5C[C@H]6CC[C@@H](C5)N6)nc(OC[C@@]56CCCN5C[C@H](F)C6)nc4c3F)c21 (stereo partly drawn) [Example 283, 7-(4-((1R,5S)-3,8-diazabicyclo[3.2.1]octan-3-yl)-8-fluoro-2-(((2R,7aS)-2-fluorotetrahydro-1H-pyrrolizin-7a(5H)-yl)methoxy)quinazolin-7-yl)-1-ethyl-2,3-dihydro-1H-inden-5-ol] | 14 |
| CCc1cccc2cc(O)cc(-c3ccc4c(N5C[C@H]6CC[C@@H](C5)N6)c(C#N)c(OC[C@@]56CCCN5C[C@H](F)C6)nc4c3)c12 [Example 174, 4-((1R,5S)-3,8-diazabicyclo[3.2.1]octan-3-yl)-7-(8-ethyl-3-hydroxynaphthalen-1-yl)-2-(((2R,7aS)-2-fluorotetrahydro-1H-pyrrolizin-7a(5H)-yl)methoxy)quinoline-3-carbonitrile] | 1460 |
| CCC1CCCc2cc(O)cc(-c3ncc4c(NCC5(N(C)C)CCC5)nc(OC[C@@]56CCCN5C[C@H](F)C6)nc4c3F)c21 (stereo partly drawn) [Example 422, 4-(4-(((1-(dimethylamino)cyclobutyl)methyl)amino)-8-fluoro-2-(((2R,7aS)-2-fluorotetrahydro-1H-pyrrolizin-7a(5H)-yl)methoxy)pyrido[4,3-d]pyrimidin-7-yl)-5-ethyl-5,6,7,8-tetrahydronaphthalen-2-ol] | 35 |
| C#Cc1c(F)ccc2cc(O)cc(-c3ccc4c(N5CC6(CNC6)C5)nc(OC[C@@]56CCCN5C[C@H](F)C6)nc4c3F)c12 [Example 135, 5-ethynyl-6-fluoro-4-(8-fluoro-2-(((2R, 7aS)-2-fluorotetrahydro-1H-pyrrolizin-7a(5H)-yl)methoxy)-4-(2,6-diazaspiro[3.3]heptan-2-yl)quinazolin-7-yl)naphthalen-2-ol] | 1200 |
| CCC1CCc2cc(O)cc(-c3c4c(c5c(N6C[C@H]7CC[C@@H](C6)N7)nc(OC[C@@]67CCCN6C[C@H](F)C7)nc5c3F)OCO4)c21 (stereo partly drawn) [Example 394, 7-(9-((1R,5S)-3,8-diazabicyclo[3.2.1]octan-3-yl)-5-fluoro-7-(((2R,7aS)-2-fluorotetrahydro-1H-pyrrolizin-7a(5H)-yl)methoxy)-[1,3]dioxolo[4,5-f]quinazolin-4-yl)-1-ethyl-2,3-dihydro-1H-inden-5-ol] | 75 |
| C#Cc1cccc2cc(O)cc(-c3ccc4c(N5C[C@H]6CC[C@@H](C5)C6(F)F)nc(OC[C@@]56CCCN5C[C@H](F)C6)nc4c3F)c12 [Example 121, 4-(4-((1R,5S)-8,8-difluoro-3-azabicyclo [3.2.1]octan-3-yl)-8-fluoro-2-(((2R,7aS)-2-fluorotetrahydro-1H-pyrrolizin-7a(5H)-yl)methoxy)quinazolin-7-yl)-5-ethynylnaphthalen-2-ol] | > 2500 |
| C#Cc1c(F)ccc2cc(O)cc(-c3ncc4c(N5CC6CCCNC6C5)nc(OC[C@@]56CCCN5C[C@H](F)C6)nc4c3F)c12 (stereo partly drawn) [Example 52, 5-ethynyl-6-fluoro-4-(8-fluoro-2-(((2R,7aS)-2-fluorotetrahydro-1H-pyrrolizin-7a(5H)-yl)methoxy)-4-(octahydro-6H-pyrrolo[3,4-b]pyridin-6-yl)pyrido[4,3-d]pyrimidin-7-yl)naphthalen-2-ol] | > 2500 |
| CCc1c(F)ccc2cc(O)cc(-c3ncc4c(N5C[C@H]6CC[C@@H](C5)N6)nc(OCC5(CN6CCCC6)CC5)nc4c3F)c12 [Example 3, 4-(4-((1R,5S)-3,8-diazabicyclo[3.2.1]octan-3-yl)-8-fluoro-2-((1-(pyrrolidin-1-ylmethyl)cyclopropyl)methoxy)pyrido[4,3-d]pyrimidin-7-yl)-5-ethyl-6-fluoronaphthalen-2-ol] | 4.5 |
| CCc1cccc2cc(O)cc(-c3ncc4c(N5C[C@H]6CC[C@@H](C5)S6)nc(OC[C@@]56CCCN5C[C@H](F)C6)nc4c3F)c12 [Example 25, 4-(4-((1R,5S)-8-thia-3-azabicyclo[3.2.1]octan-3-yl)-8-fluoro-2-(((2R, 7aS)-2-fluorotetrahydro-1H-pyrrolizin-7a(5H)-yl)methoxy)pyrido[4,3-d]pyrimidin-7-yl)-5-ethylnaphthalen-2-ol] | 290 |
| Oc1cc(-c2ccc3c(N4C[C@H]5CC[C@@H](C4)C5(F)F)nc(OC[C@@]45CCCN4C[C@H](F)C5)nc3c2F)c2c(F)c(F)ccc2c1 [Example 122, 4-(4-((1R,5S)-8,8-difluoro-3-azabicyclo [3.2.1]octan-3-yl)-8-fluoro-2-(((2R,7aS)-2-fluorotetrahydro-1H-pyrrolizin-7a(5H)-yl)methoxy)quinazolin-7-yl)-5,6-difluoronaphthalen-2-ol] | > 2500 |
| Oc1cc(-c2ccc3c(N4C[C@H]5CC[C@@H](C4)S5)nc(OC[C@@]45CCCN4C[C@H](F)C5)nc3c2F)c2c(F)c(F)ccc2c1 [Example 164, 4-(4-((1R,5S)-8-thia-3-azabicyclo[3.2.1]octan-3-yl)-8-fluoro-2-(((2R,7aS)-2-fluorotetrahydro-1H-pyrrolizin-7a(5H)-yl)methoxy)quinazolin-7-yl)-5,6-difluoronaphthalen-2-ol] | 300 |
| C#Cc1c(F)ccc2cc(O)cc(-c3ncc4c(N5CC6CCC(C5)C6S(C)(=O)=O)nc(OC[C@@]56CCCN5C[C@H](F)C6)nc4c3F)c12 (stereo partly drawn) [Example 66, 5-ethynyl-6-fluoro-4-(8-fluoro-2-(((2R,7aS)-2-fluorotetrahydro-1H-pyrrolizin-7a(5H)-yl)methoxy)-4-((1R,5S, 8R)-8-(methylsulfonyl)-3-azabicyclo[3.2.1]octan-3-yl)pyrido[4,3-d]pyrimidin-7-yl) naphthalen-2-ol] | > 10000 |
| Oc1cc(-c2c(-c3cn[nH]c3)cc3c(N4C[C@H]5CC[C@@H](C4)N5)nc(OC[C@@]45CCCN4C[C@H](F)C5)nc3c2F)c2ccccc2c1 [Example 377, 4-(4-((1R,5S)-3,8-diazabicyclo[3.2.1]octan-3-yl)-8-fluoro-2-(((2R,7aS)-2-fluorotetrahydro-1H-pyrrolizin-7a(5H)-yl)methoxy)-6-(1H-pyrazol-4-yl)quinazolin-7-yl)naphthalen-2-ol] | 120 |
| CCc1c(F)ccc2cc(O)cc(-c3ncc4c(N5C[C@H]6CC[C@@H](C5)O6)nc(OC[C@@]56CCCN5C[C@H](F)C6)nc4c3F)c12 [Example 13, 4-(4-((1R,5S)-8-oxa-3-azabicyclo[3.2.1]octan-3-yl)-8-fluoro-2-(((2R,7aS)-2-fluorotetrahydro-1H-pyrrolizin-7a(5H)-yl)methoxy)pyrido[4,3-d]pyrimidin-7-yl)-5-ethyl-6-fluoronaphthalen-2-ol] | 320 |

From US20240300980A1, “HETEROCYCLIC COMPOUNDS AS KRAS INHIBITOR, AND PREPARATION THEREFOR AND USE THEREOF IN TREATMENT” (SHANGHAI KECHOW PHARMA, INC., priority 2021, published 2024)
